Data set [1] can be described thus: Caco-2 intrinsic permeability. In kind it is in vitro ADME. Particulars: human, read-out: Cell-permeability (Papp). An excerpt:
We next performed further profiling of the most promising compound 5 and its matched pair neutral analogue 27, by measuring intrinsic permeability in a Caco-2 assay (Table S3). […] This was further confirmed using Immortalized Human Total Liver Cell Population (IHTLCP) and HeLa cells (Figures S22 and S23). […] This observed cytotoxicity of 5 can be linked to its potent G4 binding and stabilization, as it can potentially act as a pan-G4 stabilizer and affect various G4-regulated cellular processes, such as telomere maintenance, gene transcription, and DNA replication.
Physicochemical properties
The Physicochemical profiling (LogD, Solubility, Caco-2 cell permeability) was performed as previously
described.8 Cell viability was performed as described below.
Table S2. Pharmacokinetic Properties
Compound Structure logD, Solubility, Rat hepsa Human mics b
Background: Caco-2 monolayers are a common model of the intestinal barrier.

The test system of data set [2] is Immortalized Human Total Liver Cell Population (IHTLCP). Briefly: IHTLCP cell viability (PrestoBlue). In kind it is cell-based. Conditions: 72 h. The method, then:
(§1) Cell viability was measured using the PrestoBlue cell viability reagent (Invitrogen) according to the manufacturer’s recommendations.
For IHTLCP, 1850 cells/well were seeded in complete Prigrow III medium (abm) in 384-wells, black walls plate (PerkinElmer) the day before the treatment. Compounds were titrated 1/2 in DMSO, dissolved in medium, and transferred to the cells to generate the indicated final concentrations (final volume 60 μL/well). 72 h after treatment, 6 μL of PrestoBlue was added per well. Cells were incubated in PrestoBlue for 1 h at 37 °C after which fluorescence (excitation 535 nm, emission 590 nm, 20 nm bandwidth) was measured using a Synergy H4Microplate Reader. Percent viability of IHTLCP cells was calculated as FLUcmp – FLUbg/FLUDMSO – FLUbg (n = 3). […]
a Intrinsic clearance in rat hepatocytes ((μL/min)/10^6 cells).b Intrinsic clearance in human microsomes (μL/min/mg).
Table S3. […]
as §1
For HeLa cells, 5000 cells/well were seeded in complete medium on 96-wells, black walls plate the day before the treatment. […] Fluorescence (excitation 560 nm, emission 590 nm, 10 nm bandwidth) was recorded using a FLUOstar Omega Microplate Reader (BMG). […]
(§2) THP1 cell viability was measured according to a previously published procedure.9

The target in a further data set is G4 DNA (Pu22). The data set is described as follows: Isothermal titration calorimetry (ITC), reverse titration. More on the design: species or system human. Particulars: G4 DNA titrated to ligand; 19 °C; one-site binding model. The method, then: Unfortunately, this was only possible using reverse titration, adding G4 DNA to the ligand, and a direct comparison to the MST binding affinities, which were performed by titrating the ligand to the G4, can thus not be performed. […] The reason why 5 is more efficient in stabilizing G4 DNA could instead be linked to the entropic penalty (−TΔS), which is less for 5 (1.85 kcal/mol) compared to 27 (3.2 kcal/mol).
ITC experiments were performed using a MicroCal ITC200 instrument (GE Healthcare). A buffer containing 10 mM potassium phosphate and 100 mM KCl of pH 7.4 was prepared. The sample cell was filled with a 20 μM ligand, and the syringe with 120 μM prefolded G4 DNA. […] The data was analyzed in MICROCAL PEAQ-ITC analysis software using a one-site binding mode. […]
The following settings were applied: temperature 19 °C, reference power 7 μcal/sec, initial delay 300 sec, stirring speed 1000 RPM, spacing 120 sec, filter 5 sec, first injection 0.5 μL for 1 sec then 2 μL for 4 sec for the subsequent injections, and high-feedback mode. The data was analyzed in MICROCAL PEAQ-ITC analysis software using a one-site binding mode.
Figure S20. Binding curves with their associated ΔG-, ΔH-, and -TΔS-values for compounds 5 and 27 for G4 DNA (Pu22) measured by ITC with a one-site binding model. […]
structure. […] Excitation sculpting was used in the 1D 1H experiments, and 256 scans were recorded. […]
On the technique in general: Isothermal titration calorimetry measures the heat released or taken up as one component is titrated into another.

In another data set the test system is THP-1 cell line. The data set is described as follows: THP-1 cell viability (cytotoxicity). Conditions: read-out: Cell viability IC50 (THP1). In kind it is cell-based, human. The method, then:
THP1 cell viability was measured according to a previously published procedure.[48] […]
Table S3. Cell permeability and cell viability for 5 and 27
Compound Cell-permeability Cell viability IC50 Cell viability IC50 Cell viability IC50
(X x 10-6 cm/s) (THP1) (µM) (HeLa) (µM) (IHTLCP) (µM) […]
as §2

The mark [3] stands for this setting: Homo sapiens, THP-1, THP-1 cell line.

Like-named read-outs stand apart in the source and are kept apart here. Where only a bound is given, the exact number is not on record here.

Usually Papp stands for a coefficient for how fast a substance crosses the barrier. Usually IC50 stands for the concentration needed to halve the response being measured. What is called Kd is the equilibrium constant for the complex coming apart. Low readings indicate higher affinity, high ones lower affinity. On to `Cc1cc(C)c2nc(Nc3nc(C)cc(NCCCN(C)C)n3)nc(C)c2c1` [Compound 5, N4-(3-(Dimethylamino)propyl)-6-methyl-N2-(4,6,8-trimethylquinazolin-2-yl)pyrimidine-2,4-diamine], for which the Papp in data set [1] was less than 0.13 ×10⁻⁶ cm/s. For the same compound, the values for the IC50 (in data set [2]; in the data set on THP-1 cell line (setting [3]); in the data set with THP-1 cell line (THP-1 cell line)) were 640 nM, 2890 nM and 2900 nM, respectively. Besides, at G4 DNA (Pu22), binding was characterised by a dissociation constant (Kd) of 880 nM.

Regarding `Cc1cc(C)c2nc(Nc3nc(C)cc(C)n3)nc(C)c2c1` [Compound 27, N-(4,6-Dimethylpyrimidin-2-yl)-4,6,8-trimethylquinazolin-2-amine], the Papp in data set [1] is 70 ×10⁻⁶ cm/s. For the same compound, the IC50 is 35000 nM in data set [2], more than 50000 nM in the data set with THP-1 cell line (setting [3]) and not below 50000 nM in the data set on THP-1 cell line (THP-1 cell line). Also, the Kd at G4 DNA (Pu22) was found to be 1040 nM.

The values above are taken from article PMC10860144, “Exploring the Dispersion and Electrostatic Components in Arene–Arene Interactions between Ligands and G4 DNA to Develop G4-Ligands” (Journal of Medicinal Chemistry, 2024).
